Assay results published in publication PMC7244523, “A Cell-based Screen in Actinomyces oris to Identify Sortase Inhibitors” (Scientific Reports, 2020).
In brackets after ≈: the same amount, converted by molar mass.

How the values were obtained:
[1] = system: A. oris MG-1 (wild-type) versus ΔsrtA/ΔgspA strain; assay: High-throughput cell-based growth screen and counter-screen (differential growth); design: species or system Actinomyces oris; conditions: differential effect on wild-type MG-1 and ΔgspAΔsrtA strains in the HTS; 10 µM, in duplicate; 100 = extreme difference, 0 = none
Protocol: In the primary screen, a total of 200,834 small molecules were tested for their ability to impair A. oris MG-1 growth. Cells were added to an optical density (OD600) of 0.01 in media containing 10 µM of each molecule, followed by a 15 hour incubation at 37 °C and end-point OD600 measurement. The growth effect of each molecule was normalized and expressed as a percent growth relative to the DMSO-only control (see Methods). A total of 1,904 molecules were classified as preliminary hits (0.95% of the molecules tested), as they reduced MG-1 growth after 15 hours by at least 34%, or 2.75 standard deviations below the average. The preliminary hits were then subjected to a counter-screen in which their growth effects on ΔsrtA/ΔgspA were determined. In order to eliminate potentially erroneously identified preliminary hits, the counter-screen and preliminary screen was performed in duplicate for the 1,904 preliminary hit molecules. A molecule was deemed as a hit if it caused greater than 15% differential growth effect in duplicate when the MG-1 and ΔsrtA/ΔgspA strains were compared. […] Data is plotted as the percentage of growth inhibition for each molecule (see Methods).
A total of 200,834 small molecule compounds (Molecular Screening Shared Resource, UCLA) were dissolved in 100% Omnisolv methylsulfoxide (MilliporeSigma MX1456P-6) and stored in 384-well polypropylene plates. Actinomyces oris MG-1 and ΔgspAΔsrtA were streaked out on BHI agar plates containing 50 µg/mL kanamycin and grown at 37 °C for 48 hours to allow single colonies to grow. Cultures were started from 2–3 colonies in BHI with 50 µg/mL kanamycin and allowed to grow until an OD600 between 0.1–0.4. Meanwhile, 384-well plates were filled with 25 µL BHI broth with 100 µg mL^−1 kanamycin (columns 1–22) or 200 µg mL^−1 Penicillin G (positive control, columns 23–24). Five hundred nanoliters of small molecules were transferred into the media (columns 3–22) using the Biomex FX^P automated work station with a 384-well pin tool. Precultures were diluted to an OD600 of 0.02 in 1 L BHI broth without antibiotics. Twenty five microliters of cell culture was immediately aliquoted into plates containing 25 µL media, antibiotics, and small-molecules using a Multidrop (Thermo LabSystems), resulting in 50 µg mL^−1 kanamycin and 10 µM small molecules with 1% DMSO or 100 µg mL^−1 Penicillin G. Plates were immediately lidded and placed into a humidified Cytomat 6001 incubator at 37 °C and allowed to grow for 15.5 hours. Following incubation, plates were removed from the Cytomat using a Thermo Spinnaker robotic arm on a rail, de-lidded, and placed into an EnVision high-speed plate reader for optical density measurement at 620 nm.
Raw data obtained from the screen was formatted in-house to upload to the Collaborative Drug Discovery Vault (www.collaborativedrug.com). Individual optical density readings were converted to a percent growth value ([ODsample-ODPositive control]/[ODNegative Control Average- ODPositive control]) and percent growth inhibition (1-percent growth). The Z-factors for the individual molecules were determined. Molecules with a Z-factor less than or equal to -2.75 were considered preliminary hits to advance forward a generous collection of preliminary hit molecules. Five microliters of each of the 1904 preliminary hit molecules were re-arrayed into new 384-well polypropylene plates. Each of the 1904 preliminary hits were assayed against both the MG-1 and ΔgspAΔsrtA strains in duplicate, on two separate days. Percent difference of growth was calculated according to the equation 100–100[(ODMG-1, Sample-ODMG-1, Positive Control)/ODΔgspAΔsrtA, Sample-ODΔgspAΔsrtA, Positive Control)]/[(ODMG-1, Average-ODMG-1, Positive Control)/ODΔgspAΔsrtA, Average-ODΔgspAΔsrtA, Positive Control)]. […] Molecules were ranked according to their relative growth.

[2] = system: A. oris MG-1; assay: Minimum inhibitory concentration, MG-1 strain; assay type: cell-based; conditions: Actinomyces oris, MG1; BHI, 96-well plates, 18 hours
Protocol: (§1) Two validation assays were performed for each hit molecule that measured: (i) the minimum inhibitory concentration (MIC) required to prevent growth of the MG-1 and ΔsrtA/ΔgspA strains, and (ii) their in vitro inhibitory activity against the enzymatic activity of the A. oris and S. aureus sortase enzymes. Initially, the selective growth effect originally observed in the HTS that used 384-well plates was more rigorously defined by determining each molecule’s MIC value for the MG-1 and ΔsrtA/ΔgspA strains. Cells were cultured in 100 µL media containing 2-fold dilutions of each small molecule between 320 µM and 0.039 µM (approximately 134 µg mL^−1 to […]).
(§2) Minimum inhibitory concentration (MIC) values were determined for molecules 1–6 according to the Clinical Laboratory Standard Institutes’ (CLSI) Methods for Dilution Antimicrobial Susceptibility Tests for Bacteria that Grow Aerobically, Approved standards-ninth edition; M07-A9 Vol. 32 No. 2 with the following alterations. Overnight cultures of MG-1 and ΔgspAΔsrtA were diluted to OD600 values of 0.01 before being added to BHI containing the appropriate molecule in 96-well plates. Mueller-Hinton broth was not usable because A. oris is a fastidious bacterium. Plates were sealed with Breatheasy seals and incubated for 18 hours, as A. oris has a doubling time of 2 hours. Plate seals were removed and OD600 values measured. Each plate was run with a positive control (cells, media, and Penicillin G), negative control (media and cells only), and contamination control (media only).

[3] = system: A. oris ΔgspAΔsrtA; assay: Minimum inhibitory concentration, ΔgspA/ΔsrtA strain; assay type: cell-based, Actinomyces oris; conditions: BHI, 96-well plates, 18 hours
Protocol: as §1, §2

[4] = target: AoSrtA (Actinomyces oris, UniProt A0A0X8K1J2); assay: FRET-based in vitro sortase activity assay, AoSrtA; assay type: biochemical; conditions: for Inhibition of AoSrtA in vitro: FRET assay
Sequence of AoSrtA (A0A0X8K1J2 entry or part of it): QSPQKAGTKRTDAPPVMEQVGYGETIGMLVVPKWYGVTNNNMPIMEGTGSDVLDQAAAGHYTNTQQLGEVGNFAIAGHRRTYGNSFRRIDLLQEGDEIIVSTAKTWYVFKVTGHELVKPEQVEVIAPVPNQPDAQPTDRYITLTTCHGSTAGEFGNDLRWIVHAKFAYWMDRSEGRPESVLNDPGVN
Protocol: (§3) The ability of the hit molecules to inhibit sortase activity was measured in vitro using an established FRET-based assay[13] that measures the ability of each enzyme to cleave a fluorogenic peptide substrate; Abz-LAQTG-Dap(Dnp)-NH2 and Abz-LPETG-Dap(Dnp)-NH2, substrates for ^AoSrtA and ^SaSrtA, respectively. Each enzyme cleaves between the threonine and glycine bond in these peptides, leading to a measurable increase in fluorescence (see Methods). The IC50 value of each compound was determined for both the ^AoSrtA and ^SaSrtA enzymes.
(§4) IC50 values for the six hit molecules against the ^AoSrtA and ^SaSrtA enzymes were determined as previously described, with some modifications. Briefly, molecules 1–6 were serial diluted 2-fold (from 1.25 mM to 2.44 µM, 500 µM to 0.98 µM final assay concentration) into 25 µM ^AoSrtA or ^SaSrtA (final assay concentration 10 µM) in buffer A (20 mM HEPES pH 7, 5 mM CaCl2, 0.05% TWEEN, 30% DMSO). The final DMSO concentration was […] in the assay. Samples were incubated 1 hour at room temperature and aliquoted into a 384-well plate (EK-30892). Thirty microliters of FRET peptide (Peptide 2.0) in buffer B (20 mM HEPES pH 7, 5 mM CaCl2, 0.05% TWEEN), […] for ^SaSrtA or Abz-LAQTG-Dap(Dnp)-NH2 for ^AoSrtA was added and the plate was immediately placed into a Flexstation II plate reader (Molecular Devices) and fluorescence was recorded at 335/420 nm excitation/emission wavelengths after 5 seconds of plate shaking to mix the reaction components. Plate fluorescence was measured over the course of 30 minutes.

[5] = target: SaSrtA (Staphylococcus aureus, UniProt Q2FV99); assay: FRET-based in vitro sortase activity assay, SaSrtA; assay type: biochemical
Sequence of SaSrtA (Q2FV99 whole entry): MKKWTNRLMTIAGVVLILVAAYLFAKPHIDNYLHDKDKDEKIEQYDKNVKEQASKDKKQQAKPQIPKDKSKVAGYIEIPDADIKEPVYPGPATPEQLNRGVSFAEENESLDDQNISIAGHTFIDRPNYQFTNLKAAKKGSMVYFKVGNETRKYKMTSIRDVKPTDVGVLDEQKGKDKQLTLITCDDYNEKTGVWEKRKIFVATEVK
Protocol: as §3, §4

[6] = system: A. oris ΔgspA; assay: Cell fractionation and immunoblot with α-FimA (type 2 pilus); assay type: cell-based, Actinomyces oris; conditions: 10 µM, 3 hours, ΔgspA strain, versus control
Protocol: To understand the physiological effects that these molecules have on the display of pili and surface proteins on the surface of A. oris, we grew cells with 10 µM of each hit molecule and assessed sortase activity by western blot and electron microscopy as previously reported. To avoid a confounding problem that inhibiting ^AoSrtA causes cell arrest, we performed the experiments in a mutant devoid of gspA; the aforementioned genetic suppressor of sortase lethality.
(§5) Cell fractionation and Western blotting were followed according to a published protocol. Briefly, the cultures of A. oris strains grown in BHI at 37 °C until OD600 of 0.25 were aliquoted, and bacterial aliquots were treated with 10 µM of individual sortase inhibitors for 3 hours. Bacterial cultures were then normalized to equal OD600, and cells were fractionated into culture medium (S), cell wall (W), and protoplast fractions. Isolated fractions were subjected to protein precipitation by 7.5% trichloroacetic acid, followed by washing with cold acetone, except for the protoplast fractions. Protein samples were dissolved in hot sodium dodecyl sulfate (SDS)-containing sample buffer, separated by 3–12% Tris-glycine gradient gels, and subjected to immunoblotting with specific antisera (α-FimA, 1:10,000 dilution; α-GspA, α-MdbA, α-SrtC2 and α-SrtA, 1:4000 dilution), followed by chemo-luminescence detection.

[7] = system: A. oris ΔlcpA; assay: Cell fractionation and immunoblot with α-GspA (cell wall anchoring of GspA); assay type: cell-based, Actinomyces oris; conditions: 10 µM, ΔlcpA strain; for GspA polymers (immunoblot α-GspA): 3 hours; for GspA display / cell wall associated GspA: Fig. 4B
Protocol: (§6) To examine if these molecules inhibit cell wall anchoring of surface proteins (e.g. GspA), we similarly treated cells devoid of lcpA, i.e. ΔlcpA, another suppressor of srtA[46]. […] To corroborate these observations, we subjected A. oris cells of ΔgspA and Δlcp strains to 10 μM of each molecule (3, 4 and 6) and studied pilus display with transmission electron microscopy (TEM), whereby A. oris cells were immobilized on nickel grids and stained with 1% uranyl acetate prior to viewing by an electron microscope.
as §5

[8] = system: A. oris ΔgspA and ΔlcpA strains; assay: Pilus display by transmission electron microscopy; assay type: cell-based, Actinomyces oris; conditions: 10 μM; for Pilus assembly at the cell pole (TEM): ΔgspA or ΔlcpA strain, versus untreated control; for Pili display (TEM): ΔgspA strain, Fig. 5A–D
Protocol: as §6
To observe cell morphology by negative staining, A. oris cells harvested after inhibitor treatment were washed once with PBS and suspended in 0.1 M NaCl. A drop of 7 µL of bacterial suspension was placed onto carbon-coated nickel grids and stained with 1% uranyl acetate. Samples were examined using a JEOL JEM1200.

[9] = IC50 (A. oris), AoSrtA 10 µM, Abz-LAQTG-Dap(Dnp)-NH2, 1 hour preincubation
[10] = IC50 values, range over compounds, range for both AoSrtA and SaSrtA, in µM

SMILES	Differential Growth [1] [%]	MIC [2] [µg/mL]	MIC (ΔgspA/ΔsrtA) [3] [µg/mL]	IC50 [4, 9] [µM]	IC50 [4, 10] [µM]	IC50 [5] [µM]	FimA polymers / type 2 pilus production (immunoblot α-FimA) [6]	GspA polymers (immunoblot α-GspA) [7]	GspA display / cell wall associated GspA [7]	Pilus assembly at the cell pole (TEM) [8]	Pili display (TEM) [8]	Inhibition of AoSrtA in vitro [4]
COc1ccc2nc(N(Cc3ccccc3)C(=O)c3ccc([N+](=O)[O-])o3)sc2c1 [Compound 4]	38.5 ± 0.5	16.4 (≈ 40.1 µM)	>130	171	73 to 170	488	decreased FimA polymers	no GspA polymers were observed	decreased amounts of cell wall associated GspA	significant reduction of pilus assembly at the cell pole	diminished	
Cc1cc(NS(=O)(=O)c2ccc(C(C)(C)C)cc2)n(C2CCS(=O)(=O)C2)n1 (stereo not drawn) [Compound 2]	96.2 ± 0.3	0.5 (≈ 1.21 µM)	2.1 (≈ 5.1 µM)	> 486		> 486						failed to inhibit
O=C(c1cc(-c2ccc(F)cc2)n[nH]1)N1CC(c2nc(-c3ccccc3)no2)C1 [Compound 5]	96.2 ± 0.3	1 (≈ 2.57 µM)	2.0 (≈ 5.14 µM)	> 488		282						failed to inhibit
CCc1ccc2nc(N(Cc3cccnc3)C(=O)c3ccc([N+](=O)[O-])o3)sc2c1 [Compound 3]	17.5 ± 3.5	8.2 (≈ 20.1 µM)	>130	73.5	73 to 170	220	decreased FimA polymers	no GspA polymers were observed	decreased amounts of cell wall associated GspA	significant reduction of pilus assembly at the cell pole	completely absent	
Cc1nc(COc2ccc(F)cc2)sc1CC(=O)Nc1nc2c(s1)CC(C)CC2 (stereo not drawn) [Compound 6]	71.8 ± 16.5	2.1 (≈ 4.87 µM)	8.4 (≈ 19.5 µM)	139	73 to 170	125	little effect on type 2 pilus production	no GspA polymers were observed	significantly diminishes GspA display	significant reduction of pilus assembly at the cell pole	only modestly effects pili display	
Cc1ccc(S(=O)(=O)Cc2nc3cc(-c4ccccc4)sc3c(=O)[nH]2)cc1 [Compound 1]	65.7 ± 0.5	2 (≈ 5.04 µM)	4.0 (≈ 10.1 µM)	> 479		202						failed to inhibit
